The values that follow come from ChEMBL document CHEMBL1201862, “PubChem BioAssay data set” (2004).

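Cells were grown in 96-well plates and exposed to each compound for 48 hours at five concentrations; endpoints were interpolated linearly between bracketing concentrations, or set to the highest concentration if not reached. At the GI50, growth is halved.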 Activity calls are given as the source filed them. Cut-off read from the data, not from the text of the source: active = GI50 up to about 1.1 µM and inactive = higher.

Test systems include Malme-3M; SNB-19; HL-60; Hs-578T; UO-31; NCI-H226; COLO 205; NCI/ADR-RES; SNB-75; NCI-H23; SK-OV-3; TK-10; T47D; NCI-H460; K562; 786-0; CCRF-CEM; BT-549; DU-145; EKVX.
Common to all, as to assay: NCI anticancer screen, dose series, 48 h

With `CC(=O)SC(C[N+](=O)[O-])c1ccccc1` (stereo not drawn), the GI50 in the experiment with Malme-3M is 16.6 µM (inactive); with SNB-19, 11.9 µM (inactive); in the experiment on HL-60, 3.87 µM (inactive); with Hs-578T, 4.65 µM (inactive); in the experiment with UO-31, 2.3 µM (inactive); with NCI-H226, 2.59 µM (inactive). The GI50 was 2.77 µM (inactive) with COLO 205; 20.1 µM (inactive) with NCI/ADR-RES; 2.29 µM (inactive) in the experiment on SNB-75; 12 µM (inactive) in the experiment on NCI-H23; 13.3 µM (inactive) in the experiment on SK-OV-3; 7.26 µM (inactive) with TK-10. Further, the GI50 in the experiment on T47D is 10.4 µM (inactive); with NCI-H460, 8.67 µM (inactive); with K562 it was 2.41 µM (inactive); with 786-0, 3.95 µM (inactive); in the experiment with CCRF-CEM it was 2.84 µM (inactive); in the experiment on BT-549 it was 2.22 µM (inactive). Further, the results for the GI50 in the experiment on DU-145 and in the experiment on EKVX were 6.37 µM (inactive) and 6.31 µM (inactive), respectively.

For the compound `CCc1nc(N)nc(N)c1-c1ccc(NC)c([N+](=O)[O-])c1`, the GI50 was 24.8 µM (inactive) in the experiment with Malme-3M; 9.08 µM (inactive) with SNB-19; 0.308 µM (active) with HL-60; 23.6 µM (inactive) with Hs-578T; 7.93 µM (inactive) in the experiment on UO-31; 28.6 µM (inactive) in the experiment on NCI-H226. Further, the GI50 with COLO 205 is 4.84 µM (inactive); in the experiment with NCI/ADR-RES, 1.2 µM (inactive); in the experiment on SNB-75 it was 10.8 µM (inactive); with NCI-H23, 0.944 µM (active); in the experiment on SK-OV-3 it was 28.7 µM (inactive); in the experiment on TK-10, 28.2 µM (inactive). The GI50 is 21.4 µM (inactive) with T47D; 0.15 µM (active) with NCI-H460; 0.0631 µM (active) in the experiment with K562; 0.558 µM (active) in the experiment on 786-0; 0.531 µM (active) in the experiment with CCRF-CEM; 26.1 µM (inactive) in the experiment with BT-549. Besides, the GI50 in the experiment on DU-145 is 2.14 µM (inactive); in the experiment with EKVX it was 8.41 µM (inactive).

For `CS(=O)(=O)N1CC(CCl)c2ccc([N+](=O)[O-])cc21` (stereo not drawn), the GI50 is > 100 µM (inactive) in the experiment with Malme-3M; > 100 µM (inactive) with SNB-19; > 100 µM (inactive) with HL-60; 70.1 µM (inactive) in the experiment on Hs-578T; > 100 µM (inactive) in the experiment on UO-31; > 100 µM (inactive) in the experiment on NCI-H226. Besides, the GI50 is > 100 µM (inactive) in the experiment on COLO 205; > 100 µM (inactive) in the experiment on NCI/ADR-RES; < 0.01 µM (active) in the experiment with SNB-75; > 100 µM (inactive) in the experiment on NCI-H23; > 100 µM (inactive) in the experiment with SK-OV-3; > 100 µM (inactive) in the experiment with TK-10. The GI50 was > 100 µM (inactive) in the experiment with T47D; 38.2 µM (inactive) in the experiment on NCI-H460; > 100 µM (inactive) with K562; > 100 µM (inactive) in the experiment on 786-0; > 100 µM (inactive) with CCRF-CEM; > 100 µM (inactive) with BT-549. Besides, the GI50 in the experiment on DU-145 and in the experiment with EKVX was > 100 µM (inactive) throughout.

For `O=C1C(CN2CCCC2)CCC1CN1CCCC1` (stereo not drawn), the GI50 in the experiment with Malme-3M was 15.1 µM (inactive); with SNB-19 it was > 100 µM (inactive); with HL-60, 2.42 µM (inactive); in the experiment with Hs-578T, 22.3 µM (inactive); in the experiment on UO-31, 17.8 µM (inactive); with NCI-H226 it was > 48.2 µM (inactive). Besides, the GI50 in the experiment on COLO 205 is 5.71 µM (inactive); in the experiment on NCI/ADR-RES, 23.9 µM (inactive); in the experiment on SNB-75, 17.9 µM (inactive); with NCI-H23, 20.7 µM (inactive); with SK-OV-3, > 100 µM (inactive); with TK-10 it was 18.3 µM (inactive). Further, the GI50 in the experiment with T47D is 17.4 µM (inactive); in the experiment with NCI-H460 it was > 100 µM (inactive); in the experiment on K562, 2.9 µM (inactive); with 786-0, 15.8 µM (inactive); in the experiment on CCRF-CEM, 3.52 µM (inactive); in the experiment on BT-549, 17.5 µM (inactive). The figures for the GI50 with DU-145 and in the experiment on EKVX were 97.3 µM (inactive) and > 49.7 µM (inactive), respectively.

For `NC(=O)NC1NC(=O)NC1=O` (stereo not drawn) [ALLANTOIN], the GI50 with Malme-3M was > 100 µM (inactive); in the experiment on SNB-19 it was > 100 µM (inactive); in the experiment with HL-60, > 100 µM (inactive); in the experiment with Hs-578T it was > 100 µM (inactive); in the experiment on UO-31, 6 µM (inactive); with NCI-H226, > 100 µM (inactive). Further, the GI50 with COLO 205, in the experiment on NCI/ADR-RES, with SNB-75, with NCI-H23, in the experiment on SK-OV-3 and with TK-10 was > 100 µM (inactive) in each case. Further, the GI50 in the experiment on T47D, in the experiment on NCI-H460, in the experiment with K562, with 786-0, with CCRF-CEM and with BT-549 was > 100 µM (inactive) in each case. Further, the GI50 in the experiment with DU-145 and in the experiment on EKVX was > 100 µM (inactive) each time.

On to `CCOC(=O)c1c(SCCN2CCCCC2)n(-c2ccccc2)c(=S)n(-c2ccccc2)c1=O`, for which the GI50 in the experiment on Malme-3M is 16.4 µM (inactive); in the experiment with SNB-19, > 78.3 µM (inactive); in the experiment with HL-60, 3.49 µM (inactive); in the experiment with Hs-578T it was 26.1 µM (inactive); in the experiment with UO-31, 18.2 µM (inactive); with NCI-H226, 12.3 µM (inactive). Besides, the GI50 is 11.7 µM (inactive) in the experiment on COLO 205; 21.2 µM (inactive) with NCI/ADR-RES; 15 µM (inactive) in the experiment with SNB-75; 16.9 µM (inactive) in the experiment on NCI-H23; 36.2 µM (inactive) in the experiment with SK-OV-3; 18 µM (inactive) with TK-10. The GI50 was 4.6 µM (inactive) in the experiment with T47D; 33.9 µM (inactive) in the experiment with NCI-H460; 3 µM (inactive) in the experiment on K562; 14.8 µM (inactive) with 786-0; 2.99 µM (inactive) with CCRF-CEM; 16.6 µM (inactive) in the experiment on BT-549. Besides, the GI50 in the experiment with DU-145 is 29.6 µM (inactive).

In the case of `Cc1ncc([N+](=O)[O-])n1CCNCCCCn1ccnc1[N+](=O)[O-]`, the GI50 with Malme-3M, in the experiment with HL-60, with Hs-578T, in the experiment on UO-31, with NCI-H226 and with COLO 205 was > 100 µM (inactive) in each case. The GI50 with NCI/ADR-RES, in the experiment on SNB-75, in the experiment with NCI-H23, in the experiment with SK-OV-3, in the experiment on TK-10 and with T47D was > 100 µM (inactive) each time. The GI50 with NCI-H460 is > 100 µM (inactive); in the experiment with K562, > 100 µM (inactive); with 786-0, > 100 µM (inactive); with CCRF-CEM, > 100 µM (inactive); in the experiment on BT-549, 45.5 µM (inactive); in the experiment on DU-145, > 100 µM (inactive). Besides, the GI50 in the experiment on EKVX is > 100 µM (inactive).
